The record followed here is patent publication US10189854B2, “Substituted pyrimidine compounds” (Grünenthal GmbH, priority 2014, dated 2019).

Chain of human PDE4B1 (Q07343 whole entry): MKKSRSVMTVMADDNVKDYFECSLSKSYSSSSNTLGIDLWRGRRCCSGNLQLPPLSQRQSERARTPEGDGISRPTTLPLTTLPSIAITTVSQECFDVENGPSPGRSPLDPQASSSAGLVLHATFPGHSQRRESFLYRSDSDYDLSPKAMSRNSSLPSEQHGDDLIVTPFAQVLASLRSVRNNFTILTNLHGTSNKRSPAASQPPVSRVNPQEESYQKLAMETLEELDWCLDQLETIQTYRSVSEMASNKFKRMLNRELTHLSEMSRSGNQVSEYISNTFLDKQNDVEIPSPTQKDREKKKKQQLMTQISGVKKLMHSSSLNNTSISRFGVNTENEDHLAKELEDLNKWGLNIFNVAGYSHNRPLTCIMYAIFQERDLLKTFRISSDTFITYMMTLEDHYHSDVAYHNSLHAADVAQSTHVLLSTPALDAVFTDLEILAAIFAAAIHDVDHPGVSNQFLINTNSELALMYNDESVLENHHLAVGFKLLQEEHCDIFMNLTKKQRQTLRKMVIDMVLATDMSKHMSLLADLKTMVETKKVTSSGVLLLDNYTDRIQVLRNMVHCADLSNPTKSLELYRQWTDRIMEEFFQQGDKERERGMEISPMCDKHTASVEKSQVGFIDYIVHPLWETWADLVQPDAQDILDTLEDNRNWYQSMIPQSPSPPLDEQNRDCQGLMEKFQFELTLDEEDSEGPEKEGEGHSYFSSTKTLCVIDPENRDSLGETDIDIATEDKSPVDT

The assay concerns the target human PDE4B1 (Homo sapiens (Human), UniProt Q07343). The assay is described as follows: cAMP HTRF assay to determine the activity of hPDE4B1. Conditions: IC50 inhibition of PDE4B; human recombinant PDE4B1, cAMP HTRF assay. Type of assay: biochemical. How it is done:
Biological Testing cAMP HTRF® Assay to Determine the Activity of hPDE4B1
The inhibiting effect of the compounds on the enzyme activity of human PDE4B1 was measured by the quantification of 5′-adenosine monophosphate (5′-AMP), which is formed from 3′,5′-cyclic adenosine monophosphate (cAMP). Human recombinant enzyme, expressed in Sf9 cells, and the HTRF (homogeneous time-resolved fluorescence) detection method were used in the assay.
The test compound or water (control) was mixed with the human recombinant PDE4B1 enzyme (4.8 U) in a buffer consisting of 44.4 mM tris-HCl, 5.28 mM MgCl2, 2.64 mM DTT and 0.044% Tween 20 (pH 7.8). After adding the cAMP enzyme substrate (final concentration 40 nM), the mixture was incubated for 30 minutes at room temperature. Then a fluorescence acceptor (Dye2 marked with cAMP), a fluorescence donor (anti-cAMP antibody marked with a europium cryptate) and the non-specific phosphodiesterase inhibitor IBMX (3-isobutyl-1-methylxanthine; final concentration 1 mM) were added. After 60 min the fluorescence transfer, which correlates with the amount of remaining cAMP, was measured with a microplate reader (Rubystar, BMG) at λex=337 nm, λem=620 nm and λem=665 nm. The enzyme activity was calculated from the quotient formed from the measured signal at 665 nm and that at 620 nm. The result was expressed as the percentage inhibition of enzyme activity of the control (without PDE4 inhibitor). The enzyme was omitted for measurement of the basal control.
[N. Saldou et al., Comparison of recombinant human PDE4 isoforms: interaction with substrate and inhibitors, Cell. Signal. Vol. 10, No. 6, 427-440, 1998]. Several compounds according to the invention are tested in the above-described assay.
For orientation: In TR-FRET formats the signal depends on donor and acceptor labels being close together.
The IC50 is the concentration that inhibits the measured activity by half. Take `O=C(c1ccc2c(c1)N(c1ncc(-c3ccccc3F)cn1)CC21CC1)N1CCCCC12COC2` [Compound 80, [1-[5-(2-Fluorophenyl)-pyrimidin-2-yl]-spiro[1,2-dihydro-indole-3,1′-cyclopropane]-6-yl]-(2-oxa-5-azaspiro[3.5]nonan-5-yl)-methanone]: the IC50 is 0.1 to 1 µM. In the case of `NC(=O)c1ccccc1-c1cnc(N2CC3(CC3)c3ccc(C(=O)N4CCOCC4)cc32)nc1` [Compound 25, 2-[2-[6-(Morpholine-4-carbonyl)-spiro[1,2-dihydro-indole-3,1′-cyclopropane]-1-yl]-pyrimidin-5-yl]-benzamide] it was 0.1 to 1 µM; in that of `CC(C)(O)c1ccc(-c2cnc(N3CC4(CC4)c4ccc(C(=O)N5CCOCC5)cc43)nc2)s1` [Compound 207, [1-[5-[5-(1-Hydroxy-1-methyl-ethyl)-thiophen-2-yl]-pyrimidin-2-yl]-spiro[1,2-dihydro-indole-3,1′-cyclopropane]-6-yl]-morpholin4--yl-methanone], less than 0.1 µM; in that of `CN(C(=O)c1ccc2c(c1)N(c1ncc(-c3ccccc3F)cn1)CC21CC1)C1CC1` [Compound 46, N-Cyclopropyl-1-[5-(2-fluorophenyl)-pyrimidin-2-yl]-N-methyl-spiro[1,2-dihydro-indole-3,1′-cyclopropane]-6-carboxylic acid amide], 0.1 to 1 µM. As to `O=C(c1ccc2c(c1)N(c1ncc(-c3cc(F)cnc3F)cn1)CC21CC1)N1CCOCC1` [Compound 163, [1-[5-(2,5-Difluoro-pyridin-3-yl)-pyrimidin-2-yl]-spiro[1,2-dihydro-indole-3,1′-cyclopropane]-6-yl]-morpholin-4-yl-methanone], the IC50 is less than 0.1 µM. In the case of `N#Cc1ccc(-c2cnc(N3CC4(CC4)c4ccc(C(=O)N5CCOCC5)cc43)nc2)s1` [Compound 143, 5-[2-(6-(Morpholine-4-carbonyl)-spiro[1,2-dihydro-indole-3,1′-cyclopropane]-1-yl]-pyrimidin-5-yl]-thiophene-2-carbonitrile] it was less than 0.1 µM; in that of `NC(=O)c1cccc(F)c1-c1cnc(N2CC3(CC3)c3ccc(C(=O)N4CCOCC4)cc32)nc1` [Compound 32, 3-Fluoro-2-[2-[6-(morpholine-4-carbonyl)-spiro[1,2-dihydro-indole-3,1′-cyclopropane]-1-yl]-pyrimidin-5-yl]-benzamide], 0.1 to 1 µM. In the case of `NC(=O)c1ccc(F)c(-c2cnc(N3CC4(CC4)c4ccc(C(=O)N5CCNCC5)cc43)nc2)c1` [Compound 116, 4-Fluoro-3-[2-[6-(piperazine-1-carbonyl)-spiro[1,2-dihydro-indole-3,1′-cyclopropane]-1-yl]-pyrimidin-5-yl]-benzamide] it was less than 0.1 µM. For `NC(=O)c1ccc(-c2cnc(N3CC4(CC4)c4ccc(C(=O)N5CCOCC5)cc43)nc2)o1` [Compound 156, 5-[2-[6-(Morpholine-4-carbonyl)-spiro[1,2-dihydro-indole-3,1′-cyclopropane]-1-yl]-pyrimidin-5-yl]-furan-2-carboxylic acid amide], the half-maximal inhibitory concentration (IC50) was less than 0.1 µM.

Consider `CC1COCC(C)N1C(=O)c1ccc2c(c1)N(c1ncc(-c3ccccc3F)cn1)CC21CC1` (stereo not drawn) [Compound 101, (3,5-Dimethyl-morpholin-4-yl)-[1-[5-(2-fluorophenyl)-pyrimidin-2-yl]-spiro[1,2-dihydro-indole-3,1′-cyclopropane]-6-yl]-methanone], for which the IC50 was in the range of 0.1 to 1 µM.

Consider `O=C(c1ccc2c(c1)N(c1ncc(-c3ccc(F)c(F)c3)cn1)CC21CC1)N1CCOCC1` [Compound 53, [1-[5-(3,4-Difluoro-phenyl)-pyrimidin-2-yl]-spiro[1,2-dihydro-indole-3,1′-cyclopropane]-6-yl]-morpholin-4-yl-methanone], for which the IC50 was 0.1 to 1 µM.

With “[1-[5-(6-Methoxy-pyridazin-3-yl)-pyrimidin-2-yl]-spiro[1,2-dihydro-indole-3,1′-cyclopropane]-6-yl]-morpholin-4-yl-methanone [Compound 201]”, the IC50 is less than 0.1 µM. In the case of `Cn1ccc(-c2cnc(N3CC4(CC4)c4ccc(C(=O)N5CC[C@@H](N)C5)cc43)nc2)c1` [Compound 172, [(3R)-3-Amino-pyrrolidin-1-yl]-[1-[5-(1-methyl-1H-pyrrol-3-yl)-pyrimidin-2-yl]-spiro[1,2-dihydro-indole-3,1′-cyclopropane]-6-yl]-methanone] it was less than 0.1 µM.

With `NC(=O)c1ccc2c(c1)N(c1ncc(-c3ccccc3F)cn1)CC21CC1` [Compound 127, 1-[5-(2-Fluorophenyl)-pyrimidin-2-yl]-spiro[1,2-dihydro-indole-3,1′-cyclopropane]-6-carboxylic acid amide], the 50% inhibitory concentration (IC50) was in the range of 0.1 to 1 µM. Regarding `O=C(c1ccc2c(c1)N(c1ncc(-c3ccccc3F)cn1)CC21CC1)N1CCN(CCO)CC1` [Compound 34, [1-[5-(2-Fluorophenyl)-pyrimidin-2-yl]-spiro[1,2-dihydro-indole-3,1′-cyclopropane]-6-yl]-[4-(2-hydroxy-ethyl)-piperazin-1-yl]-methanone], the IC50 is less than 0.1 µM. In the case of `COC1CCN(C(=O)c2ccc3c(c2)N(c2ncc(-c4ccccc4F)cn2)CC32CC2)CC1` [Compound 100, [1-[5-(2-Fluorophenyl)-pyrimidin-2-yl]-spiro[1,2-dihydro-indole-3,1′-cyclopropane]-6-yl]-(4-methoxy-piperidin-1-yl)-methanone] it was 0.1 to 1 µM; in that of `O=C(c1ccc2c(c1)N(c1ncc(-c3ccccc3F)cn1)CC21CC1)N1CCN(C2CC2)CC1` [Compound 66, (4-Cyclopropyl-piperazin-1-yl)-[1-[5-(2-fluorophenyl)-pyrimidin-2-yl]-spiro[1,2-dihydro-indole-3,1′-cyclopropane]-6-yl]-methanone], 1 to 10 µM.

As to “N-(2-Hydroxy-ethyl)-1-[5-(3-methoxyphenyl)-pyrimidin-2-yl]-N-methyl-spiro[1,2-dihydro-indole-3,1′-cyclopropane]-6-carboxylic acid amide [Compound 197]”, the IC50 is less than 0.1 µM. As to `CN(C)C(=O)c1ccc2c(c1)N(c1ncc(-c3ccccc3F)cn1)CC21CC1` [Compound 2, 1-[5-(2-Fluorophenyl)-pyrimidin-2-yl]-N,N-dimethyl-spiro[1,2-dihydro-indole-3,1′-cyclopropane]-6-carboxylic acid amide], the IC50 is less than 0.1 µM. With “Morpholin-4-yl-[1-(5-pyrimidin-4-yl-pyrimidin-2-yl)-spiro[1,2-di-hydro-indole-3,1′-cyclopropane]-6-yl]-methanone [Compound 190]” the figure was less than 0.1 µM.

With `COc1ccsc1-c1cnc(N2CC3(CC3)c3ccc(C(=O)N4CCNC(=O)C4)cc32)nc1` [Compound 177, 4-[1-[5-(3-Methoxy-thiophen-2-yl)-pyrimidin-2-yl]-spiro[1,2-dihydro-indole-3,1′-cyclopropane]-6-carbonyl]-piperazin-2-one], the concentration for half-maximal inhibition (IC50) is less than 0.1 µM.

Regarding `Cc1ccc(F)c(-c2cnc(N3CC4(CC4)c4ccc(C(=O)N5CCOCC5)cc43)nc2)c1` [Compound 52, [1-[5-(2-Fluoro-5-methyl-phenyl)-pyrimidin-2-yl]-spiro[1,2-dihydro-indole-3,1′-cyclopropane]-6-yl]-morpholin-4-yl-methanone], the half-inhibitory concentration (IC50) was less than 0.1 µM. In the case of `CN[C@@H]1CCN(C(=O)c2ccc3c(c2)N(c2ncc(-c4ccccc4F)cn2)CC32CC2)C1` [Compound 121, [1-[5-(2-Fluorophenyl)-pyrimidin-2-yl]-spiro[1,2-dihydro-indole-3,1′-cyclopropane]-6-yl]-[(3R)-3-methylamino-pyrrolidin-1-yl]-methanone] it was less than 0.1 µM; in that of `O=C(c1ccc2c(c1)N(c1ncc(-c3c(F)cccc3C(F)(F)F)cn1)CC21CC1)N1CCOCC1` [Compound 24, [1-[5-[2-Fluoro-6-(trifluoromethyl)-phenyl]-pyrimidin-2-yl]-spiro[1,2-dihydro-indole-3,1′-cyclopropane]-6-yl]-morpholin-4-yl-methanone], 1 to 10 µM; in that of `CN1CCN(C(=O)c2ccc3c(c2)N(c2ncc(-c4ccccc4F)cn2)CC32CC2)CC1` [Compound 60, [1-[5-(2-Fluorophenyl)-pyrimidin-2-yl]-spiro[1,2-dihydro-indole-3,1′-cyclopropane]-6-yl]-(4-methyl-piperazin-1-yl)-methanone], less than 0.1 µM. On to `O=C(c1ccc2c(c1)N(c1ncc(-c3cn[nH]c3C(F)(F)F)cn1)CC21CC1)N1CCOCC1` [Compound 140, Morpholin-4-yl-[1-[5-[5-(trifluoromethyl)-1H-pyrazol-4-yl]-pyrimidin-2-yl]-spiro[1,2-dihydro-indole-3,1′-cyclopropane]-6-yl]-methanone], for which the 50% inhibitory concentration (IC50) was less than 0.1 µM. With `N[C@@H]1CCN(C(=O)c2ccc3c(c2)N(c2ncc(-c4cccc(F)c4F)cn2)CC32CC2)C1` [Compound 114, [(3R)-3-Amino-pyrrolidin-1-yl]-[1-[5-(2,3-difluoro-phenyl)-pyrimidin-2-yl]-spiro[1,2-dihydro-indole-3,1′-cyclopropane]-6-yl]-methanone] the figure was less than 0.1 µM.
